In PubChem BioAssay (NCI):
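Cultured in 96-well plates, cells were exposed to test compound for 48 hours across five concentrations. Definition used: TGI = concentration required for complete inhibition of growth.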

Legend:
Experiment in all cases: DTP human tumour cell line panel, 48 h
[1] = system: OVCAR-4 ovarian
[2] = system: UO-31 renal
[3] = system: SF-539 CNS
[4] = system: OVCAR-5 ovarian
[5] = system: TK-10 renal
[6] = system: U251 CNS
[7] = system: CAKI-1 renal
[8] = system: K-562 leukemia
[9] = system: T-47D breast
[10] = system: MDA-MB-435
[11] = system: HS 578T breast
[12] = system: PC-3 prostate
[13] = system: SK-MEL-2 melanoma
[14] = system: HCT-116 colon
[15] = system: NCI-H226 lung
[16] = system: RXF 393 renal
[17] = system: SK-MEL-5 melanoma
[18] = system: SN12C renal
[19] = system: DU-145 prostate
[20] = system: NCI-H460 lung
[21] = system: SF-268 CNS
[22] = system: UACC-257 melanoma
[23] = system: MOLT-4 leukemia
[24] = system: SR leukemia
[25] = system: HT29 colon
[26] = system: COLO 205 colon
[27] = system: MDA-N
[28] = system: BT-549 breast
[29] = system: KM12 colon
[30] = system: MCF7 breast
[31] = system: MDA-MB-231 breast
[32] = system: SW-620 colon
[33] = system: HOP-92 NSCLC
[34] = system: CCRF-CEM leukemia
[35] = system: 786-0 renal
[36] = system: IGROV1 ovarian
[37] = system: RPMI-8226 leukemia
[38] = system: A549 NSCLC
[39] = system: HCT-15 colon
[40] = system: ACHN renal
[41] = system: OVCAR-3 ovarian
[42] = system: NCI-H23 lung
[43] = system: UACC-62 melanoma
[44] = system: NCI/ADR-RES ovarian
[45] = system: M14 melanoma
[46] = system: HOP-62 NSCLC
[47] = system: OVCAR-8 ovarian
[48] = system: SNB-75 CNS
[49] = system: SK-MEL-28 melanoma
[50] = system: NCI-H522 lung
[51] = system: SK-OV-3 ovarian
[52] = system: HCC-2998 colon
[53] = system: SF-295 CNS
[54] = system: MALME-3M melanoma
[55] = system: A498 renal
[56] = system: SNB-19 CNS
[57] = system: HL-60(TB) leukemia
[58] = system: LOX IMVI melanoma
[59] = system: EKVX NSCLC

O=C(c1ccco1)C1CC(c2ccc3ccccc3c2O)=NN1 (stereo unspecified)
TGI [1]: > 100 µM
TGI [2]: > 100 µM
TGI [3]: > 100 µM
TGI [4]: > 100 µM
TGI [5]: > 100 µM
TGI [6]: > 100 µM
TGI [7]: > 100 µM
TGI [8]: > 100 µM
TGI [9]: > 100 µM
TGI [10]: > 100 µM
TGI [11]: > 100 µM
TGI [12]: > 100 µM
TGI [13]: > 100 µM
TGI [14]: > 100 µM
TGI [15]: > 100 µM
TGI [16]: > 100 µM
TGI [17]: > 100 µM
TGI [18]: > 100 µM
TGI [19]: > 100 µM
TGI [20]: > 100 µM
TGI [21]: > 100 µM
TGI [22]: > 100 µM
TGI [23]: > 100 µM
TGI [24]: > 100 µM
TGI [25]: > 100 µM
TGI [26]: > 100 µM
TGI [27]: > 100 µM
TGI [28]: > 100 µM
TGI [29]: > 100 µM
TGI [30]: > 100 µM
TGI [31]: > 100 µM
TGI [32]: > 100 µM
TGI [33]: > 100 µM
TGI [34]: > 100 µM
TGI [35]: > 100 µM
TGI [36]: > 100 µM
TGI [37]: > 100 µM
TGI [38]: > 100 µM
TGI [39]: > 100 µM
TGI [40]: > 100 µM
TGI [41]: > 100 µM
TGI [42]: > 100 µM
TGI [43]: > 100 µM
TGI [44]: > 100 µM
TGI [45]: > 100 µM
TGI [46]: > 100 µM
TGI [47]: > 100 µM
TGI [48]: > 100 µM
TGI [49]: > 100 µM
TGI [50]: > 100 µM
TGI [51]: > 100 µM
TGI [52]: > 100 µM
TGI [53]: > 100 µM
TGI [54]: > 100 µM
TGI [55]: > 100 µM

CN1CCC(CNC(=O)CCCCCCCCC(=O)NCC2(c3ccccc3)CCN(C)CC2)(c2ccccc2)CC1
TGI [1]: > 100 µM
TGI [2]: > 100 µM
TGI [56]: > 100 µM
TGI [3]: 48.8 µM
TGI [4]: > 100 µM
TGI [5]: > 100 µM
TGI [6]: > 100 µM
TGI [8]: > 100 µM
TGI [9]: > 100 µM
TGI [10]: > 100 µM
TGI [11]: > 100 µM
TGI [12]: > 100 µM
TGI [13]: > 100 µM
TGI [14]: > 100 µM
TGI [15]: > 100 µM
TGI [16]: > 100 µM
TGI [17]: > 100 µM
TGI [18]: > 100 µM
TGI [19]: > 100 µM
TGI [20]: > 100 µM
TGI [21]: 57.6 µM
TGI [22]: > 100 µM
TGI [23]: > 100 µM
TGI [24]: > 100 µM
TGI [25]: > 100 µM
TGI [26]: > 100 µM
TGI [27]: > 100 µM
TGI [28]: > 100 µM
TGI [29]: > 100 µM
TGI [57]: > 100 µM
TGI [30]: > 100 µM
TGI [31]: > 100 µM
TGI [58]: > 100 µM
TGI [32]: > 100 µM
TGI [34]: > 100 µM
TGI [35]: > 100 µM
TGI [36]: > 100 µM
TGI [37]: > 100 µM
TGI [38]: > 100 µM
TGI [39]: > 100 µM
TGI [40]: > 100 µM
TGI [41]: > 100 µM
TGI [43]: > 100 µM
TGI [44]: > 100 µM
TGI [45]: > 100 µM
TGI [46]: > 100 µM
TGI [47]: > 100 µM
TGI [48]: > 100 µM
TGI [49]: > 100 µM
TGI [50]: > 100 µM
TGI [59]: 38.8 µM
TGI [51]: > 100 µM
TGI [52]: > 100 µM
TGI [53]: > 100 µM
TGI [54]: > 100 µM
TGI [55]: > 100 µM
